Results from ChEMBL document CHEMBL2069302, “Nortriterpene glycosides of the sarasinoside class from the sponge Lipastrotethya sp” (J Nat Prod, 2012).

What was measured:
A549 = assay: Cytotoxicity against human A549 cells; assay type: functional; conditions: read-out: LC50 (the source's name)
K562 = assay: Cytotoxicity against human K562 cells; assay type: functional; conditions: read-out: LC50 (the source's name)
[1] = target: Sodium/potassium-transporting ATPase; assay: Inhibition of Sodium/potassium-transporting ATPase; assay type: protein-complex assay, Homo sapiens

SMILES | CC50 (A549) [µM] | CC50 (K562) [µM] | IC50 [1] [µM]
CC(=O)N[C@H]1[C@H](O[C@@H]2CO[C@@H](O[C@H]3CC[C@]4(C)C5=CC[C@]6(C)[C@@H]([C@H](C)CC(=O)C=C(C)C)CC[C@H]6C5=CC[C@H]4C3(C)C)[C@H](O[C@@H]3O[C@H](CO[C@@H]4O[C@H](CO)[C@@H](O)[C@H](O)[C@H]4O[C@@H]4O[C@H](CO)[C@@H](O)[C@H](O)[C@H]4O)[C@@H](O)[C@H](O)[C@H]3NC(C)=O)[C@H]2O)O[C@H](CO)[C@H](O)[C@@H]1O [SARASINOSIDE A2] | 7.6 | 8.5 | > 77.7
CC(=O)N[C@H]1[C@H](O[C@@H]2CO[C@@H](O[C@H]3CC[C@]4(C)C5=CC[C@]6(C)[C@@H]([C@H](C)CC(=O)C=C(C)C)CC[C@H]6[C@@]5(O)CC[C@@]4(O)C3(C)C)[C@H](O[C@@H]3O[C@H](CO[C@@H]4O[C@H](CO)[C@@H](O)[C@H](O)[C@H]4O[C@@H]4O[C@H](CO)[C@@H](O)[C@H](O)[C@H]4O)[C@@H](O)[C@H](O)[C@H]3NC(C)=O)[C@H]2O)O[C@H](CO)[C@H](O)[C@@H]1O [SARASINOSIDE O] | 54.7 | 61.5 | > 75.7
CC(=O)N[C@H]1[C@H](O[C@@H]2CO[C@@H](O[C@H]3CC[C@@]4(C)[C@@H](CCC5=C6CC[C@H]([C@H](C)CC(=O)C=C(C)C)[C@@]6(C)CC[C@@]4(O)O5)C3(C)C)[C@H](O[C@@H]3O[C@H](CO[C@@H]4O[C@H](CO)[C@@H](O)[C@H](O)[C@H]4O[C@@H]4O[C@H](CO)[C@@H](O)[C@H](O)[C@H]4O)[C@@H](O)[C@H](O)[C@H]3NC(C)=O)[C@H]2O)O[C@H](CO)[C@H](O)[C@@H]1O [SARASINOSIDE Q] | 14 | 17.9 | > 75.7
CC(=O)N[C@H]1[C@H](O[C@@H]2CO[C@@H](O[C@H]3CC[C@]4(C)C5=CC[C@@]6(C)C(=C(CC[C@H]4C3(C)C)O5)CC[C@@H]6[C@H](C)CC(=O)C=C(C)C)[C@H](O[C@@H]3O[C@H](CO[C@@H]4O[C@H](CO)[C@@H](O)[C@H](O)[C@H]4O[C@@H]4O[C@H](CO)[C@@H](O)[C@H](O)[C@H]4O)[C@@H](O)[C@H](O)[C@H]3NC(C)=O)[C@H]2O)O[C@H](CO)[C@H](O)[C@@H]1O [SARASINOSIDE M] | 7.7 | 12.1 | > 76.7
COc1cccc2c1C(=O)c1c(O)c3c(c(O)c1C2=O)C[C@@](O)(C(=O)CO)C[C@@H]3O[C@H]1C[C@H](N)[C@H](O)[C@H](C)O1 [DOXORUBICIN] | 1.7 | 4.7 | 
CC(=O)N[C@H]1[C@H](O[C@@H]2CO[C@@H](O[C@H]3CC[C@@]4(C)[C@@H](CCC5=C6[C@H](O)C[C@H]([C@H](C)CC(=O)C=C(C)C)[C@@]6(C)CC[C@@]54O)C3(C)C)[C@H](O[C@@H]3O[C@H](CO[C@@H]4O[C@H](CO)[C@@H](O)[C@H](O)[C@H]4O[C@@H]4O[C@H](CO)[C@@H](O)[C@H](O)[C@H]4O)[C@@H](O)[C@H](O)[C@H]3NC(C)=O)[C@H]2O)O[C@H](CO)[C@H](O)[C@@H]1O [SARASINOSIDE H1] | 14.2 | 37.4 | > 75.7
CC(=O)N[C@H]1[C@H](O[C@@H]2CO[C@@H](O[C@H]3CC[C@]4(C)C5=C(CC[C@H]4C3(C)C)[C@@H]3CC[C@H]([C@H](C)CC(=O)C=C(C)C)[C@@]3(C)CC5)[C@H](O[C@@H]3O[C@H](CO)[C@@H](O)[C@H](O)[C@H]3NC(C)=O)[C@H]2O)O[C@H](CO)[C@H](O)[C@@H]1O (relative stereo) | 10.7 | 20.2 | 56.1
CC(=O)N[C@H]1[C@H](O[C@@H]2CO[C@@H](O[C@H]3CC[C@]4(C)C5=CC[C@]6(C)[C@@H]([C@H](C)CC(=O)C=C(C)C)CC[C@H]6[C@]5(O)CC[C@]4(O)C3(C)C)[C@H](O[C@@H]3O[C@H](CO[C@@H]4O[C@H](CO)[C@@H](O)[C@H](O)[C@H]4O[C@@H]4O[C@H](CO)[C@@H](O)[C@H](O)[C@H]4O)[C@@H](O)[C@H](O)[C@H]3NC(C)=O)[C@H]2O)O[C@H](CO)[C@H](O)[C@@H]1O [SARASINOSIDE P] | 17.9 | 11.6 | > 75.7
CC(=O)N[C@H]1[C@H](O[C@@H]2CO[C@@H](O[C@H]3CC[C@]4(C)C5=C(CC[C@H]4C3(C)C)[C@@H]3CC[C@H]([C@H](C)CC(=O)C=C(C)C)[C@@]3(C)CC5)[C@H](O[C@@H]3O[C@H](CO[C@@H]4O[C@H](CO)[C@@H](O)[C@H](O)[C@H]4O[C@@H]4O[C@H](CO)[C@@H](O)[C@H](O)[C@H]4O)[C@@H](O)[C@H](O)[C@H]3NC(C)=O)[C@H]2O)O[C@H](CO)[C@H](O)[C@@H]1O [SARASINOSIDE A1] | 7.6 | 7.4 | 46.5
CO[C@@H]1C[C@H]([C@H](C)CC(=O)C=C(C)C)[C@@]2(C)CC[C@@]3(O)C(=C12)CC[C@H]1C(C)(C)[C@@H](O[C@@H]2OC[C@@H](O[C@@H]4O[C@H](CO)[C@H](O)[C@H](O)[C@H]4NC(C)=O)[C@H](O)[C@H]2O[C@@H]2O[C@H](CO[C@@H]4O[C@H](CO)[C@@H](O)[C@H](O)[C@H]4O[C@@H]4O[C@H](CO)[C@@H](O)[C@H](O)[C@H]4O)[C@@H](O)[C@H](O)[C@H]2NC(C)=O)CC[C@@]13C [SARASINOSIDE H2] | > 100 | 42.7 | > 74.9
CC(=O)N[C@H]1[C@H](O[C@H]2[C@H](O[C@H]3CC[C@]4(C)C5=C(CC[C@H]4C3(C)C)[C@@H]3CC[C@H]([C@H](C)CC(=O)C=C(C)C)[C@@]3(C)CC5)OC[C@@H](O)[C@@H]2O)O[C@H](CO[C@@H]2O[C@H](CO)[C@@H](O)[C@H](O)[C@H]2O[C@@H]2O[C@H](CO)[C@@H](O)[C@H](O)[C@H]2O)[C@@H](O)[C@@H]1O | 9.1 | 18.7 | 54.7
CC(=O)N[C@H]1[C@H](O[C@@H]2CO[C@@H](O[C@H]3CC[C@]4(C)C5=C(CC[C@H]4C3(C)C)C3=CC[C@H]([C@H](C)CC(=O)C=C(C)C)[C@@]3(C)CC5)[C@H](O[C@@H]3O[C@H](CO[C@@H]4O[C@H](CO)[C@@H](O)[C@H](O)[C@H]4O[C@@H]4O[C@H](CO)[C@@H](O)[C@H](O)[C@H]4O)[C@@H](O)[C@H](O)[C@H]3NC(C)=O)[C@H]2O)O[C@H](CO)[C@H](O)[C@@H]1O [SARASINOSIDE A3] | 10.1 | 24.8 | > 77.7
CC(C)=CC(=O)C[C@@H](C)[C@H]1CCC2=C3CC[C@H]4C(C)(C)[C@@H](O)CC[C@]4(C)[C@H]3CC[C@@]21C | 41.6 | 69.4 | > 234
CC(=O)N[C@H]1[C@H](O[C@@H]2CO[C@@H](O[C@H]3CC[C@]4(C)C5=C(CC[C@H]4C3(C)C)[C@@H]3CC[C@H]([C@H](C)CC(=O)CC(C)(C)O)[C@@]3(C)CC5)[C@H](O[C@@H]3O[C@H](CO[C@@H]4O[C@H](CO)[C@@H](O)[C@H](O)[C@H]4O[C@@H]4O[C@H](CO)[C@@H](O)[C@H](O)[C@H]4O)[C@@H](O)[C@H](O)[C@H]3NC(C)=O)[C@H]2O)O[C@H](CO)[C@H](O)[C@@H]1O [SARASINOSIDE J] | 10.3 | 20.8 | > 76.5
CC(=O)N[C@H]1[C@H](O[C@@H]2CO[C@@H](O[C@H]3CC[C@@]4(C)[C@@H](CC[C@@]5(O)[C@]4(O)CC=C4[C@@H]([C@H](C)CC(=O)C=C(C)C)CC[C@@]45C)C3(C)C)[C@H](O[C@@H]3O[C@H](CO[C@@H]4O[C@H](CO)[C@@H](O)[C@H](O)[C@H]4O[C@@H]4O[C@H](CO)[C@@H](O)[C@H](O)[C@H]4O)[C@@H](O)[C@H](O)[C@H]3NC(C)=O)[C@H]2O)O[C@H](CO)[C@H](O)[C@@H]1O [SARASINOSIDE R] | 14.7 | > 100 | > 75.7
